Results taken from ChEMBL document CHEMBL4177563, “The medicinal chemistry of Chikungunya virus” (Bioorg Med Chem, 2017).

Key:
[1] = system: Chikungunya virus; test: Antiviral activity against Chikungunya virus LR2006-OPY1 infected in BHK21 cells after 48 hrs by luciferase reporter gene assay; assay type: functional, organism-based; details: LR2006-OPY1, BHK-21, 48 h
[2] = system: Chikungunya virus; test: Antiviral activity against Chikungunya virus LR2006-OPY1 infected in human Huh7.5 cells after 48 hrs by luciferase reporter gene assay; assay type: functional, organism-based; details: LR2006-OPY1, Huh7.5, 48 h
[3] = Cytotoxicity against BHK21 cells in presence of ATP by Celltiter-Glo assay; assay type: cell-based, Mesocricetus auratus; details: hamster, BHK-21 cells
[4] = Cytotoxicity against human Huh7.5 cells in presence of ATP by Celltiter-Glo assay; assay type: cell-based
[5] = Selectivity index, ratio of CC50 for BHK21 cells to EC50 for Chikungunya virus; assay type: toxicity; details: hamster, BHK-21 cells; read-out: Ratio CC50/EC50
[6] = Selectivity index, ratio of CC50 for human Huh7.5 cells to EC50 for Chikungunya virus; assay type: toxicity; details: read-out: Ratio CC50/EC50
[7] = system: Chikungunya virus; test: Antiviral activity against Chikungunya virus infected in African green monkey Vero cells; assay type: functional, organism-based
[8] = Selectivity index, ratio of CC50 for African green monkey Vero cells to EC50 for Chikungunya virus; assay type: toxicity; details: read-out: Ratio CC50/EC50
[9] = system: Chikungunya virus; test: Antiviral activity against Chikungunya virus KC969208 infected in African green monkey Vero cells after 48 hrs by MTT dye-based assay; assay type: functional, organism-based
[10] = Selectivity index, ratio of CC50 for African green monkey Vero cells to IC50 for Chikungunya virus KC969208; assay type: toxicity; details: read-out: Ratio CC50/IC50
[11] = Cytotoxicity against African green monkey Vero A cells assessed as reduction in cell viability measured on day 5 post infection by MTS/PMS based microscopic analysis; details: chlorocebus sabaeus
[12] = system: Chikungunya virus; test: Antiviral activity against Chikungunya virus 899 infected in African green monkey Vero A cells assessed as inhibition of virus-induced cytopathogenic effect measured on day 5 post infection by MTS/PMS based microscopic analysis; assay type: functional, organism-based; details: Chikungunya virus, 899, Vero, 120 h
[13] = system: Chikungunya virus; test: Antiviral activity against Chikungunya virus 899 infected in African green monkey Vero A cells by real-time qRT-PCR analysis; assay type: functional, organism-based; details: Chikungunya virus, 899, Vero
[14] = system: Chikungunya virus; test: Antiviral activity against Chikungunya virus 899 infected in African green monkey Vero A cells assessed as reduction in viral infectious progeny by end-point titration assay; assay type: functional, organism-based; details: Chikungunya virus, 899, Vero
[15] = system: Chikungunya virus; test: Antiviral activity against Chikungunya virus KC969207 infected in African green monkey Vero cells after 48 hrs by MTT dye-based assay; assay type: functional, organism-based
[16] = Cytotoxicity against African green monkey Vero cells assessed as reduction in cell viability after 4 days by MTT assay; assay type: cell-based; details: chlorocebus sabaeus
[17] = Selectivity index, ratio of CC50 for African green monkey Vero cells to IC50 for Chikungunya virus KC969207; assay type: toxicity; details: read-out: Ratio CC50/IC50
[18] = system: Chikungunya virus; test: Antiviral activity against Chikungunya virus C347 infected in African green monkey Vero cells assessed as inhibition of viral-induced cytopathic effect after 2 days by microscopic analysis; assay type: functional, organism-based; details: 48 h
[19] = system: Chikungunya virus; test: Antiviral activity against Chikungunya virus at 0.006 to 300 uM by cell based luciferase reporter gene assay relative to control; assay type: functional
[20] = system: Chikungunya virus; test: Antiviral activity against Chikungunya virus LR2006 OPY1 infected in human MRC5 cells after 48 hrs by indirect immunofluorescence analysis; assay type: functional, organism-based; details: LR2006 OPY1, MRC5, 48 h
[21] = system: Chikungunya virus; test: Antiviral activity against Chikungunya virus infected in BHK21 cells assessed as reduction in plague formation at 1 uM after 24 hrs relative to control; assay type: functional; details: BHK-21, 24 h
[22] = system: Chikungunya virus; test: Antiviral activity against Chikungunya virus infected in human Huh-7 cells assessed as reduction in viral load at 10 uM; assay type: functional
[23] = system: Dengue virus; test: Antiviral activity against Dengue virus infected in human Huh-7 cells assessed as reduction in viral load at 1 uM; assay type: functional
[24] = system: Dengue virus; test: Antiviral activity against Dengue virus infected in human K562 cells assessed as reduction in viral load at 1 uM; assay type: functional

Compound: CC[C@H](C)[C@H]1O[C@]2(CC[C@@H]1C)C[C@@H]1C[C@@H](C/C=C(\C)[C@@H](O[C@H]3C[C@H](OC)[C@@H](O[C@H]4C[C@H](OC)[C@@H](O)[C@H](C)O4)[C@H](C)O3)[C@@H](C)/C=C/C=C3\CO[C@]4(O)[C@H](O)C(C)=C[C@@H](C(=O)O1)[C@]34O)O2
- EC50 [1]: 0.6 µM
- EC50 [2]: 1.9 µM
- CC50 [3]: 37.9 µM
- CC50 [4]: 8 µM
- selectivity ratio [5]: 62.4
- selectivity ratio [6]: 4.1

Compound: CC(=O)C(C)/C(C)=C/C(=O)O[C@@H]1[C@H](C)C[C@H]2O[C@]1(O)[C@@H](O)[C@H]1CC[C@H](O1)C(C)(C)/C=C/[C@H](C)C2=O (stereo not given in full)
- EC50 [7]: 7 µM
- selectivity ratio [8]: 8.8

Compound: CCCCCCCCCCCCCCCCCOC(=O)c1ccccc1C(=O)O
- IC50 [9]: 76.5 µM
- selectivity ratio [10]: 4.66

Compound: CCCCCCCC(=O)O[C@H]1/C(=C/C(=O)OC)C[C@H]2C[C@H](CC(=O)OC)OC(=O)CCOc3ccc(-c4c(OC)cccc4OC)cc3C(=O)OCC(C)(C)[C@]1(O)O2
- CC50 at 5 days [11]: > 50 µM
- EC50 [12]: 4 µM
- EC50 [13]: 2.1 µM
- EC50 [14]: 2 µM

Compound: C/C(=C\C(=O)O[C@@H]1[C@H](C)C[C@H]2O[C@]1(O)[C@@H](O)[C@H]1CC[C@H](O1)C(C)(C)/C=C/[C@H](C)C2=O)C(C)O (stereo not given in full)
- EC50 [7]: 34 µM
- selectivity ratio [8]: 3.2

Compound: NC(=O)c1ncn([C@@H]2O[C@H](CO)[C@@H](O)[C@H]2O)n1 [RIBAVIRIN]
- IC50 [15]: 3.06 µM
- CC50 at 96 h [16]: 1620 µM
- selectivity ratio [17]: 529
- EC50 [18]: 341 µM

Compound: CC1=C(/C=C/C(C)=C/C=C/C(C)=C/C(=O)Nc2ccc(O)cc2)C(C)(C)CCC1 [FENRETINIDE]
- EC50 [1]: 3.1 µM
- EC50 [2]: 0.5 µM
- CC50 [3]: 31.5 µM
- CC50 [4]: 15.6 µM
- selectivity ratio [5]: 10.3
- selectivity ratio [6]: 29.9
- Activity [19]: 65%

Compound: CCCCCCCC(=O)O[C@H]1/C(=C/C(=O)OC)C[C@H]2C[C@H](CC(=O)OC)OC(=O)CCOc3ccccc3C(=O)OCC(C)(C)[C@]1(O)O2
- CC50 at 5 days [11]: > 50 µM
- EC50 [12]: 8 µM
- EC50 [13]: 4.6 µM
- EC50 [14]: 4.5 µM

Compound: CCOC(=O)c1c(CS(=O)(=O)c2ccccc2)n(C)c2cc(Br)c(O)c(CN(C)C)c12
- IC50 [20]: > 56.4 µM

Compound: C[C@H]1O[C@@H](O[C@H]2CC[C@@]3(C)[C@H](CC[C@@H]4[C@@H]3C[C@@H](O)[C@]3(C)[C@@H](C5=CC(=O)OC5)CC[C@]43O)C2)C[C@H](O)[C@@H]1O[C@H]1C[C@H](O)[C@H](O[C@H]2C[C@H](O)[C@H](O[C@@H]3O[C@H](CO)[C@@H](O)[C@H](O)[C@H]3O)[C@@H](C)O2)[C@@H](C)O1 [DESLANOSIDE]
- inhibition at 1 µM [21]: 38.7%

Compound: O=C1c2c(O)ccc([N+](=O)[O-])c2C(=O)c2c([N+](=O)[O-])ccc(O)c21
- Activity [22]: 1 log10PFU/ml
- Activity [23]: >1 log10PFU/ml
- Activity [24]: >1 log10PFU/ml

Compound: CCCCCCCC(=O)O[C@H]1/C(=C/C(=O)OC)C[C@H]2C[C@H](COC)OC(=O)CCOc3ccccc3C(=O)OCC(C)(C)[C@]1(O)O2
- CC50 at 5 days [11]: > 50 µM
- EC50 [12]: 7.5 µM
- EC50 [13]: 6 µM
- EC50 [14]: 4.1 µM

Compound: CC(C)CCCC(C)CCCC(C)CCCC(C)CCO (stereo not given)
- IC50 [15]: 1.66 µM
- IC50 [9]: 112 µM
- CC50 at 96 h [16]: 259 µM
- selectivity ratio [17]: 156
- selectivity ratio [10]: 2.11

Compound: CCCCOC(=O)c1ccccc1C(=O)O
- IC50 [15]: 2.49 µM
- IC50 [9]: 28.6 µM
- CC50 at 96 h [16]: 340 µM
- selectivity ratio [17]: 136
- selectivity ratio [10]: 11.9
